The data set can be described thus: Human HepG2 cell viability assay in 384 well format. It counts as toxicity, cell-based. Also on record: dose 125 nL, time 70.5 hour; concentration not given beside the values. The settings on record: HepG2 cells, read-out: Inhibition.
For the compound `Cc1cc(C(=O)NCC(Cc2cccc(F)c2)N2CCCCC2=O)no1` (stereo not given), the cytotoxicity at 70.5 h is -2.65%.

Regarding `CN(C)S(=O)(=O)NCC(Cc1cccc(F)c1)N1CCNC1=O` (stereo not given), the cytotoxicity at 70.5 h was -2.09%.

Regarding `CC(C)S(=O)(=O)NCC(Cc1cccc(F)c1)N1CCNC1=O` (stereo not given), the cytotoxicity at 70.5 h was -15.5%.

In the case of `CCOCC(=O)NCC(Cc1cccc(F)c1)n1cccc1` (stereo not given), the cytotoxicity at 70.5 h was -1.33%.

For `O=C(Nc1ccccc1F)C1CN(C(=O)c2ccc3c(c2)OCO3)C1`, the cytotoxicity at 70.5 h is -11.5%.

As for `CC(=O)N1CC(C(=O)Nc2cccc(OC(F)F)c2)C1`, the cytotoxicity at 70.5 h was -3.71%.

Regarding `O=C(Nc1cccc(OC(F)F)c1)C1CN(S(=O)(=O)C2CC2)C1`, the cytotoxicity at 70.5 h came to 0.345%.

Take `O=C(CC1CCCCC1)N1CCOCC1CO` (stereo not given): the cytotoxicity at 70.5 h was -14.9%.

Consider `c1ccc2c(c1)CCN2c1nc(N2CCOCC2)c2nn[nH]c2n1`, for which the cytotoxicity at 70.5 h was 32.9%.

`O=S(=O)(NCC1CCN(c2cnccn2)CC1)C1CC1`: the cytotoxicity at 70.5 h was determined as 30.4%.

Take `CC(=O)c1ccc(S(=O)(=O)NCC2CCN(c3cnccn3)CC2)cc1`: the cytotoxicity at 70.5 h is -4.91%.

Consider `CCCc1nnsc1C(=O)NCC1CCN(C(=O)c2ccncc2)CC1`, for which the cytotoxicity at 70.5 h was 25.7%.

For `COc1cccc(C(=O)NCC2CCN(C(=O)c3ccoc3)CC2)c1`, the cytotoxicity at 70.5 h is -3.78%.

Regarding `COc1ccc(CCC(=O)NCCN2CCC(c3cccs3)CC2)cc1`, the cytotoxicity at 70.5 h was -1.5%.

Turning to `CSCC(C)(O)CNS(=O)(=O)Cc1ccc(F)cc1` (stereo not given), the cytotoxicity at 70.5 h was -11.7%.

As to `CCOc1ccccc1NC(=O)NCC(C)(O)CCSC` (stereo not given), the cytotoxicity at 70.5 h is -3.88%.

With `COc1cccc(NC(=O)NCC(C)(O)CCSC)c1OC` (stereo not given), the cytotoxicity at 70.5 h is -8.28%.

For the compound `CC(C)(C)C(O)CCNC(=O)c1ccc(F)cc1Cl` (stereo not given), the cytotoxicity at 70.5 h is -16.1%.

As to `O=S(=O)(NCCC(O)c1cccs1)c1c(F)cccc1F` (stereo not given), the cytotoxicity at 70.5 h was -14.6%.

With `COc1ccc(Cl)cc1NC(=O)CN1CCc2nc(NC(C)=O)sc2C1`, the cytotoxicity at 70.5 h was found to be 18.9%.

On to `O=C(Nc1nc2c(s1)CN(S(=O)(=O)C1CC1)CC2)C1CC1`, for which the cytotoxicity at 70.5 h was determined as 27%.

On to `COC(=O)Nc1nc2c(s1)CN(C(=O)NCc1cccs1)CC2`, for which the cytotoxicity at 70.5 h is -7.97%.

For `CC(C)NC(=O)Nc1nc2c(s1)CN(C(=O)NCc1cccs1)CC2`, the cytotoxicity at 70.5 h was -0.676%.

For `O=C(Nc1nc2c(s1)CN(S(=O)(=O)C1CC1)CC2)c1ccsc1`, the cytotoxicity at 70.5 h is -12.1%.

On to `COc1ccc(F)cc1S(=O)(=O)N1CCN(CCn2ccnc2)CC1`, for which the cytotoxicity at 70.5 h is -12.2%.

For `O=S(=O)(NCC(O)c1ccc(C(F)(F)F)cc1)C1CC1` (stereo not given), the cytotoxicity at 70.5 h stood at 12.5%.

In the case of `O=S(=O)(NCC1(O)CCOc2ccccc21)c1ccc(Cl)s1` (stereo not given), the cytotoxicity at 70.5 h was -6.65%.

Take `O=C1CC(NS(=O)(=O)c2ccc(Cl)cc2)CN1` (stereo not given): the cytotoxicity at 70.5 h was found to be 0.308%.

On to `O=C1CC(NS(=O)(=O)c2cccc(F)c2)CN1` (stereo not given), for which the cytotoxicity at 70.5 h is 5.76%.

As for `O=C1CC(NS(=O)(=O)c2ccc(F)c(Cl)c2)CN1` (stereo not given), the cytotoxicity at 70.5 h was determined as 0.519%.

Take `COC(=O)c1ccc(S(=O)(=O)NC2CNC(=O)C2)cc1` (stereo not given): the cytotoxicity at 70.5 h came to 0.76%.

On to `O=C(NC1CC(=O)N(C2CC2)C1)c1ccc(Cl)s1` (stereo not given), for which the cytotoxicity at 70.5 h was -8.35%.

Consider `CCS(=O)(=O)CCNC(=O)c1cc2n(n1)CCCO2`, for which the cytotoxicity at 70.5 h was -5.74%.

`O=C(c1cnn2c1OCCC2)N1CCC(Cc2ccccc2)CC1`: the cytotoxicity at 70.5 h was 29.6%.

Take `CC(=O)c1ccc(N2CCN(C(=O)c3cnn4c3OCCC4)CC2)cc1`: the cytotoxicity at 70.5 h was determined as 1.33%.

As for `O=C(c1cnn2c1OCCC2)N1CCN(C(=O)C2CCCO2)CC1` (stereo not given), the cytotoxicity at 70.5 h is -5.75%.

Take `CC(C)(C)OC(=O)N1CCN(C(=O)c2cnn3c2OCCC3)CC1`: the cytotoxicity at 70.5 h was -0.601%.

For the compound `CCc1ccc(S(=O)(=O)N2CC3(COC(C)(C)OC3)C2)s1`, the cytotoxicity at 70.5 h amounted to 14.1%.

`COc1ccc(C)cc1NC(=O)Nc1cnc(N2CCOCC2)nc1`: the cytotoxicity at 70.5 h is -0.928%.

On to `Clc1ccc(COCC2CCN(Cc3ccccn3)CC2)cc1`, for which the cytotoxicity at 70.5 h was -0.416%.
